Measured values taken from US20240376126A1, “PRMT5 INHIBITOR AND THE USE THEREOF” (CYTOSINLAB THERAPEUTICS CO., LTD., priority 2022, published 2024).
Like-named read-outs stand apart in the source and are kept apart here.

Assays:
[1] = test system: HCT116 MTAP WT cells; assay: Proliferation inhibition of HCT116 cells in vitro (CellTiter Glo, 6 days); type: cell-based; conditions: read-out: Cell proliferation inhibition rate HCT116 MTAP WT IC50 (nm)
From the text: (§1) Biological Test Example 2 Proliferation Inhibition of HCT116 and HCT116 MTAP-KO Cells In Vitro
(§2) HCT116 cell line was purchased from the Chinese Academy of Sciences Cell Bank, and the MTAP gene was knocked out by CRISPR/Cas9 technology to obtain HCT116-MTAP-KO cell line.
(§3) McCoy's 5A medium (Gibco, catalog No. 16600082), fetal bovine serum (Gibco, catalog No. 10099141C), penicillin-streptomycin double antibody (Gibco, catalog No. 15140122), pancreatic enzyme (Gibco, catalog No. 25200056), CellTiter Glo assay kit (Promega, catalog No. G7572), 384-well transparent flat-bottomed black walled cell culture plate (Corning, catalog No. 3764), ultra micro sampler (Tecan, catalog No. D300e), Multimode reader (Biotek, catalog No. SynergyHTX)
(§4) • 1. Cell culture: HCT116 and HCT116-MTAP-KO cells were cultured in McCoy'5A medium+10% fetal bovine serum+1% penicillin-streptomycin double antibody; to ensure that they were always in the logarithmic growth phase and the cell viability greater than 95%. • 2. Compound concentration gradient preparation: The compound to be tested was added to a 384-well plate using an ultra micro sampler, starting from 30 μM (HCT116 cells) or 3 μM (HCT116-MTAP-KO cells), and diluted with DMSO at 3 times for a total of 9 concentrations and set up three duplicate wells. • 3. Treatment of cells with compounds: Trypsin-digested HCT116 or HCT116-MTAP-KO cell suspension was added to the 384-well plates spotted with the compounds to be tested at 40 μL per well, i.e., 100 cells per well, and the final concentration of DMSO was 0.4%. The cell culture plate was incubated at 37° C. in a 5% CO2 incubator for 6 days. • 4. Detection: 20 μL of CellTiter Glo reagent was added to each well of the cell culture plate and incubated at room temperature for 30 minutes. A multimode reader was used to detect the luminescence signal at […]. • 5. Data analysis:
(§5) The data was fitted with GraphPad Prism 8.0 software using a four parameter inhibitor-reaction model to obtain the […] (half inhibitory concentration) of the test compounds.
(§6) The first column represents cell proliferation inhibition rate HCT116 MTAP WT IC50 (nm), and the second column represents cell proliferation inhibition rate HCT116-MTAP null IC50 (nm): […]

[2] = test system: HCT116-MTAP-KO (MTAP null) cells; assay: Proliferation inhibition of HCT116 MTAP-KO cells in vitro (CellTiter Glo, 6 days); type: cell-based; conditions: read-out: Cell proliferation inhibition rate HCT116-MTAP null IC50 (nm)
From the text: as §1, §2, §3, §4, §5, §6

Row | Compound | IC50 ([1]; Homo sapiens, HCT-116, 144 h) [nM] | IC50 ([2]; HCT116-MTAP null, 144 h) [nM] | IC50 [1] [nM] | IC50 [2] [nM]
1 | CC1OCc2c1c(N)nc1ccc(C(=O)N(Cc3cn4ccccc4n3)C34CC(C3)C4)cc21 (stereo not shown) [Example 56] | 1000 to 10000 | 100 to 1000 | – | –
2 | CC1OCc2c1c(N)nc1ccc(C(=O)N(Cc3cn4ccccc4n3)c3cnn(C)c3)cc21 (stereo not shown) [Example 57] | 1000 to 10000 | 100 to 1000 | – | –
3 | CC(C)CN(Cc1nc2ccccn2c1F)C(=O)c1cc2c(cc1F)nc(N)c1cnn(C)c12 [Example 58] | 100 to 1000 | < 100 | – | –
4 | Cn1ncc2c(N)nc3cc(F)c(C(=O)N(Cc4cn5ccccc5n4)C45CC(F)(C4)C5)cc3c21 [Example 59] | 1000 to 10000 | < 100 | – | –
5 | COCCN(C(=O)c1cc2c(cc1F)nc(N)c1cnn(C)c12)C(C)c1cn2ccccc2n1 (stereo not shown) [Example 60] | 1000 to 10000 | < 100 | – | –
6 | Cn1ncc2c(N)nc3cc(F)c(C(=O)N(Cc4cn5ccccc5n4)C45CC(C#N)(C4)C5)cc3c21 [Example 61] | 1000 to 10000 | < 100 | – | –
7 | Cn1ncc2c(N)nc3cc(F)c(C(=O)N(Cc4cn5ccccc5n4)C45CC(C(F)(F)F)(C4)C5)cc3c21 [Example 62] | 1000 to 10000 | < 100 | – | –
8 | C[C@@H]1COC[C@H](c2cn3ccccc3n2)N1C(=O)c1ccc2nc(N)c3cnn(C)c3c2c1 [Example 63] | 1000 to 10000 | < 100 | – | –
9 | CC1OCc2c1c(N)nc1ccc(C(=O)N3[C@H](C)COC[C@@H]3c3cn4ccccc4n3)cc21 (stereo partly shown) [Example 64] | 1000 to 10000 | 100 to 1000 | – | –
10 | CC1OCc2c1c(N)nc1ccc(C(=O)N(Cc3cn4ccccc4n3)C(C)C(F)(F)F)cc21 (stereo not shown) [Example 65] | 1000 to 10000 | 100 to 1000 | – | –
11 | CC1OCc2c1c(N)nc1ccc(C(=O)N(Cc3cn4ccccc4n3)CC(F)F)cc21 (stereo not shown) [Example 66] | 1000 to 10000 | 100 to 1000 | – | –
12 | CC1OCc2c1c(N)nc1ccc(C(=O)N3C(C)COCC3c3cn4cc(C(F)(F)F)ccc4n3)cc21 (stereo not shown) [Example 67] | 1000 to 10000 | 100 to 1000 | – | –
13 | Cn1cc(N(Cc2cn3cc(C(F)(F)F)ccc3n2)C(=O)c2ccc3nc(N)c4c(c3c2)COC4)cn1 [Example 68] | 1000 to 10000 | < 100 | – | –
14 | CCN(Cc1cn2ccccc2n1)C(=O)c1cc2c(cn1)nc(N)c1cnc(C)n12 [Example 69] | 1000 to 10000 | 100 to 1000 | – | –
15 | CC1OCc2c1c(N)nc1ccc(C(=O)N(Cc3nc4ccc(C(F)(F)F)cn4c3F)c3cnn(C)c3)cc21 (stereo not shown) [Example 71] | 1000 to 10000 | < 100 | – | –
16 | C[C@H]1OCc2c1c(N)nc1ccc(C(=O)N(Cc3cn4c(C(F)(F)F)cccc4n3)c3cnn(C)c3)cc21 [Example 72] | 1000 to 10000 | 1000 to 10000 | – | –
17 | C[C@@H]1OCc2c1c(N)nc1ccc(C(=O)N(Cc3cn4c(C(F)(F)F)cccc4n3)c3cnn(C)c3)cc21 [Example 73] | 1000 to 10000 | < 100 | – | –
18 | CC1OCc2c1c(N)nc1ccc(C(=O)N(Cc3cn4c(C(F)(F)F)cccc4n3)c3cnn(C)c3)cc21 (stereo not shown) [Example 74] | 1000 to 10000 | 100 to 1000 | – | –
19 | Cc1ccc2nc(CN(C(=O)c3ccc4nc(N)c5c(c4c3)COC5C)c3cnn(C)c3)cn2c1 (stereo not shown) [Example 75] | 1000 to 10000 | < 100 | – | –
20 | CC1OCc2c1c(N)nc1ccc(C(=O)N(Cc3cn4cc(C(F)F)ccc4n3)c3cnn(C)c3)cc21 (stereo not shown) [Example 78] | 1000 to 10000 | < 100 | – | –
21 | Cn1cc(N(Cc2cn3cc(C(F)(F)F)ccc3n2)C(=O)c2cc3c4c(c(N)nc3cc2F)COC4)cn1 [Example 80] | 1000 to 10000 | < 100 | – | –
22 | Cn1cc(N(Cc2cn3ccccc3n2)C(=O)c2cc3c4c(c(N)nc3cc2F)COC4)cn1 [Example 82] | 1000 to 10000 | < 100 | – | –
23 | Cn1cc(N(Cc2nc3ccccn3c2F)C(=O)c2cc3c4c(c(N)nc3cc2F)COC4)cn1 [Example 83] | 100 to 1000 | < 100 | – | –
24 | Cn1cc(N(Cc2nc3ccc(C(F)(F)F)cn3c2F)C(=O)c2cc3c4c(c(N)nc3cc2F)COC4)cn1 [Example 84] | 1000 to 10000 | < 100 | – | –
25 | CCN(Cc1cn2cc(C(F)(F)F)ccc2n1)C(=O)c1cc2c3c(c(N)nc2cc1F)COC3 [Example 85] | 1000 to 10000 | < 100 | – | –

Row | Compound | IC50 ([1]; Homo sapiens, HCT-116, 144 h) [nM] | IC50 ([2]; HCT116-MTAP null, 144 h) [nM] | IC50 [1] [nM] | IC50 [2] [nM]
26 | CCN(Cc1cn2ccccc2n1)C(=O)c1cc2c3c(c(N)nc2cc1F)COC3 [Example 86] | 1000 to 10000 | < 100 | – | –
27 | Cc1ccc2nc(CN(C(=O)c3cc4c5c(c(N)nc4cc3F)COC5)c3cnn(C)c3)cn2c1 [Example 87] | 1000 to 10000 | < 100 | – | –
28 | Cn1ncc(N(Cc2cn3cc(C(F)(F)F)ccc3n2)C(=O)c2cc3c4c(c(N)nc3cc2F)COC4)n1 [Example 88] | 1000 to 10000 | < 100 | – | –
29 | Cc1nn(C)cc1N(Cc1cn2cc(C(F)(F)F)ccc2n1)C(=O)c1ccc2nc(N)c3c(c2c1)COC3 [Example 89] | 1000 to 10000 | < 100 | – | –
30 | Cc1nn(C)cc1N(Cc1cn2cc(C(F)(F)F)ccc2n1)C(=O)c1ccc2nc(N)c3c(c2c1)CO[C@H]3C [Example 90] | 100 to 1000 | < 100 | – | –
31 | Cn1cc(N(Cc2nc3ccc(C(F)(F)F)cn3c2F)C(=O)c2ccc3nc(N)c4c(c3c2)COC4)cn1 [Example 91] | 1000 to 10000 | < 100 | – | –
32 | Cn1cc(N(Cc2nc3ccccn3c2F)C(=O)c2ccc3nc(N)c4c(c3c2)COC4)cn1 [Example 92] | 1000 to 10000 | < 100 | – | –
33 | Cc1nn(C)cc1N(Cc1nc2ccc(C(F)(F)F)cn2c1F)C(=O)c1ccc2nc(N)c3c(c2c1)COC3 [Example 93] | 1000 to 10000 | < 100 | – | –
34 | Nc1nc2cc(F)c(C(=O)N(Cc3cn4cc(C(F)(F)F)ccc4n3)C3CCOC3)cc2c2c1COC2 (stereo not shown) [Example 94] | 1000 to 10000 | 100 to 1000 | – | –
35 | CCn1cc(N(Cc2cn3cc(C(F)(F)F)ccc3n2)C(=O)c2ccc3nc(N)c4c(c3c2)COC4)c(C)n1 [Example 95] | 1000 to 10000 | < 100 | – | –
36 | Cc1nn(C)cc1N(Cc1nc2ccccn2c1F)C(=O)c1ccc2nc(N)c3c(c2c1)COC3 [Example 96] | 1000 to 10000 | < 100 | – | –
37 | CCc1nn(C)cc1N(Cc1cn2cc(C(F)(F)F)ccc2n1)C(=O)c1ccc2nc(N)c3c(c2c1)COC3 [Example 97] | 1000 to 10000 | < 100 | – | –
38 | Cc1cc(N(Cc2cn3cc(C(F)(F)F)ccc3n2)C(=O)c2ccc3nc(N)c4c(c3c2)COC4)n(C)n1 [Example 98] | 1000 to 10000 | < 100 | – | –
39 | Cc1ncccc1N(Cc1cn2cc(C(F)(F)F)ccc2n1)C(=O)c1ccc2nc(N)c3c(c2c1)COC3 [Example 99] | 1000 to 10000 | < 100 | – | –
40 | Cc1ncccc1N(Cc1cn2cc(C(F)(F)F)ccc2n1)C(=O)c1ccc2nc(N)c3c(c2c1)COC3C (stereo not shown) [Example 100] | 1000 to 10000 | < 100 | – | –
41 | CCn1cc(N(Cc2nc3ccc(C(F)(F)F)cn3c2F)C(=O)c2ccc3nc(N)c4c(c3c2)COC4)c(C)n1 [Example 101] | 1000 to 10000 | < 100 | – | –
42 | Cc1cc2cc(C(=O)N(Cc3cn4cc(C(F)(F)F)ccc4n3)c3cn(C)nc3C)ccc2nc1N [Example 103] | 1000 to 10000 | 100 to 1000 | – | –
43 | Cc1nn(C)cc1N(Cc1cn2cc(C(F)(F)F)ccc2n1)C(=O)c1cc2c(cc1F)nc(N)c1cnn(C)c12 [Example 104] | – | – | 100 to 1000 | < 100
44 | Cc1nn(C)cc1N(Cc1cn2cc(C(F)(F)F)ccc2n1)C(=O)c1ccc2nc(N)c3c(cnn3C)c2c1 [Example 105] | 1000 to 10000 | < 100 | – | –
45 | Cn1nccc1N(Cc1cn2cc(C(F)(F)F)ccc2n1)C(=O)c1ccc2nc(N)c3c(c2c1)COC3 [Example 107] | 1000 to 10000 | < 100 | – | –
46 | Cc1cc(NC(=O)C(=O)N(Cc2cn3cc(C(F)(F)F)ccc3n2)c2cn(C)nc2C)cnc1N [Example 108] | 1000 to 10000 | < 100 | – | –
47 | Cc1nn(C)cc1N(Cc1cn2cc(C(F)(F)F)ccc2n1)C(=O)c1ccc2nc(N)c3c(c2c1)OCC3 [Example 109] | 1000 to 10000 | < 100 | – | –
48 | Cn1nccc1N(Cc1cn2cc(C(F)(F)F)ccc2n1)C(=O)c1cc2c(cc1F)nc(N)c1cnn(C)c12 [Example 111] | – | – | < 100 | < 100
49 | Cn1nccc1N(Cc1cn2cc(C(F)(F)F)ccc2n1)C(=O)c1ccc2nc(N)c3c(c2c1)OCC3 [Example 112] | 100 to 1000 | < 100 | – | –
50 | Cn1cc(N(Cc2cn3cc(C(F)(F)F)ccc3n2)C(=O)c2ccc3nc(N)c4c(c3c2)OCC4)cn1 [Example 113] | 1000 to 10000 | 100 to 1000 | – | –
